From patent US10206911B2, “Androgen receptor variants and methods for making and using” (MEMORIAL SLOAN-KETTERING CANCER CENTER, priority 2012, dated 2019)
Residue numbers refer to the chain shown, from its start. Entries after “also recorded” stand apart in the source; their conditions may differ.

Key:
AR F876L = molecular target: T1, AR F876L (Homo sapiens, UniProt P10275, DEL79-80/DUP473-473/F877L); experiment: EGFP reporter assay of AR activity, LNCaP-Pb.PSE.EGFP cells, flow cytometry; type: cell-based; conditions: 10 μM, 4 days of treatment
T1 construct: expressed in transfected cells
T1 sequence (P10275 with tags, fused parts or gaps DEL79-80/DUP473-473/F877L): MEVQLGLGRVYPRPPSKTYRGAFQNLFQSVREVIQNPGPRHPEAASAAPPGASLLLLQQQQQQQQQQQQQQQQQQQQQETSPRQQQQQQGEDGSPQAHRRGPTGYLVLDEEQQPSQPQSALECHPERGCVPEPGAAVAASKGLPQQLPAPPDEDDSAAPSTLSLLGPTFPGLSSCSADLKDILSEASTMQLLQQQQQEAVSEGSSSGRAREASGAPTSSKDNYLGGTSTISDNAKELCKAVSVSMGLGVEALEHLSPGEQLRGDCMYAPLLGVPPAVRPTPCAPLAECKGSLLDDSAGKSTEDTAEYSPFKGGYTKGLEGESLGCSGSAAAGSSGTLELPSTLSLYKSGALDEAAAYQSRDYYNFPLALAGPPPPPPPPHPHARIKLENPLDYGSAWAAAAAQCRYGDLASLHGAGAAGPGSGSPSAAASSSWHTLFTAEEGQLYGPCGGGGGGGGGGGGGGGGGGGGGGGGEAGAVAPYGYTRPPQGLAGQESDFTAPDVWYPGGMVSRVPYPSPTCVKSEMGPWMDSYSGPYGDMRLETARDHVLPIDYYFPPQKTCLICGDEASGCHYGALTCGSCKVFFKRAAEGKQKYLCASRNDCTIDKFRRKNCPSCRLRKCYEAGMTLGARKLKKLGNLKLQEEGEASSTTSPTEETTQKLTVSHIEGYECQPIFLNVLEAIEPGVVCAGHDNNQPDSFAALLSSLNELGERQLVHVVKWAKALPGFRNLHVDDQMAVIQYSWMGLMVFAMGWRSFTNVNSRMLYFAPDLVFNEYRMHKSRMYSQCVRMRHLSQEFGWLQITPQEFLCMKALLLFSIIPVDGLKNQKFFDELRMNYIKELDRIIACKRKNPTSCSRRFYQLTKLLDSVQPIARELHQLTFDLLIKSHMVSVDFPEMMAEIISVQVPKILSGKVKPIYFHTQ
Text: (§1) This clone was used for all flow cytometry assays and for the FACS-based resistance screens.

AR WT = molecular target: T2, AR WT (Homo sapiens, UniProt P10275, DEL79-80/DUP473-473); experiment: as above; type: cell-based; conditions: 10 μM, 4 days of treatment
T2 construct: expressed in transfected cells; host or cells: LNCaP-Pb.PSE.EGFP (pantropic retroviral infection, blasticidin selection)
T2 sequence (P10275 with tags, fused parts or gaps DEL79-80/DUP473-473): T1 sequence (P10275 with tags, fused parts or gaps DEL79-80/DUP473-473/F877L) with L876F
Text: as §1

[1] = tested on: VCaP cells overexpressing AR WT; experiment: VCaP growth assay (CellTiter-GLO); type: cell-based, human; conditions: full-serum containing media, 10 μM
[2] = tested on: CWR22PC cells expressing AR WT; experiment: CWR22PC cell viability (CellTiterGLO); type: cell-based, human; conditions: full serum media; days 1, 4, and 7
Description: […]. […] CellTiterGLO assay was performed on days 1, 4, and 7 to measure cell viability. […] CellTiterGLO assay was performed on days 1, 4, and 7 to measure cell viability.
[…]. […] CellTiterGLO assay was performed on days 1, 4, and 7 to determine cell viability. RLU=relative light units.

[3] = tested on: LNCaP/AR cells ectopically expressing AR WT; experiment: LNCaP/AR xenograft, time to tumor progression; type: in vivo, castrated male SCID mice; conditions: 30 mg/kg enzalutamide, daily gavage, castrate SCID mice
Description: Daily gavage treatment (using a formulation of 1% carboxymethyl cellulose, 0.1% Tween-80, 5% DMSO) was initiated on the day of injection. Once tumors were palpable, tumor size was measured weekly in three dimensions (1×w×d) with calipers.

[4] = tested on: AR mutants isolated from drug resistant LNCaP/AR xenograft tumors; experiment: Luciferase reporter assay of AR activity in androgen depleted media, CV1 cells; type: cell-based, human; conditions: 10 μm antiandrogen
[5] = tested on: AR mutants isolated from drug resistant LNCaP/AR xenograft tumors; experiment: EGFP reporter assay of AR activity, LNCaP/Pb.PSE.EGFP cells; type: cell-based, human; conditions: androgen containing media, 10 μM antiandrogen
Description: Additionally, EGFP reporter assays of AR activity in cells expressing the indicated AR mutants were performed and the data are presented in FIG. 21A and FIG. 21B.

[6] = tested on: AR mutants isolated from drug resistant CWR22Pc cells; experiment: EGFP reporter assay and qRT-PCR, LNCaP/Pb.PSE.EGFP cells; type: cell-based, human; conditions: 10 μM antiandrogen; variable degrees, gene-specific differences
[7] = tested on: VCaP cells overexpressing AR F876L; experiment: VCaP growth assay (CellTiter-GLO); type: cell-based, human; conditions: full-serum containing media, 10 μM
AR T877A = molecular target: T3, AR T877A (Homo sapiens, UniProt P10275, DEL79-80/DUP473-473/T878A); experiment: AR luciferase reporter assay (ARE(4X)-luciferase) in CV1 cells; type: cell-based; conditions: 10 μM antiandrogen
T3 construct: expressed in transfected cells; host or cells: CV1
T3 sequence (P10275 with tags, fused parts or gaps DEL79-80/DUP473-473/T878A): T1 sequence (P10275 with tags, fused parts or gaps DEL79-80/DUP473-473/F877L) with L876F, T877A
Description: Transfection media was removed 4-6 hours later and replaced with phenol red free DME-HG containing 10% charcoal stripped serum. The following day each plate was split into 24- or 48-well plates, in 10% CSS media, containing the indicated drugs in triplicate. Twenty-four to forty-eight hours later, luciferase activity was assayed using Dual-Luciferase Reporter Assay System (Promega) on a 96-well luminometer (Turner Biosystems).

[8] = tested on: DU145 (an AR null human prostate cancer cell line); experiment: DU145 cell viability (CellTiterGLO); type: cell-based; conditions: 10 μM, full serum containing media
Description: DU145 cells were cultured in full serum containing media with 10 uM of the indicated antiandrogens. CellTiterGLO assay was performed on days 0, 3, and 6 to determine cell viability. RLU=relative light units.

Q: Which “Effect on transcriptional activity of AR F876L in EGFP reporter assay (agonism or antagonism)” value (AR F876L) does the source give for `CNC(=O)c1ccc(N2C(=S)N(c3ccc(C#N)c(C(F)(F)F)c3)C(=O)C23CC(C)(C)CC(C)(C)C3)cc1F` [DR105, 4-(3-(4-cyano-3-(trifluoromethyl)phenyl)-7,7,9,9-tetramethyl-4-oxo-2-thioxo-1,3-diazaspiro[4.5]decan-1-yl)-2-fluoro-N-methylbenzamide] here?
A: Its value is “effectively antagonized; also recorded: inhibited”.

Q: And the “Effect on transcriptional activity of AR WT in EGFP reporter assay (agonism or antagonism)” value (AR WT)?
A: Its value is “effectively antagonized; also recorded: inhibited”.

Q: Which results are given for `CNC(=O)c1ccc(N2C(=S)N(c3ccc(C#N)c(C(F)(F)F)c3)C(=O)C2(C)C)cc1F` [enzalutamide]?
A: Growth of VCaP cells, AR WT [1]: only inhibit the growth of VCaP/AR WT; also recorded: potently inhibits the growth; Growth/viability of CWR22PC cells, AR WT [2]: very sensitive; Growth of wild-type AR tumors [3]: almost completely inhibited; Agonism on AR mutants, luciferase reporter [4]: none of the mutants conferred agonism; Sensitivity of AR mutants, EGFP reporter [5]: still remained sensitive; Sensitivity of AR mutants, EGFP reporter assay & qRT-PCR [6]: still remained sensitive

Q: `CNC(=O)c1ccc(N2C(=S)N(c3cnc(C#N)c(C(F)(F)F)c3)C(=O)C23CCCC(C)(C)C3)cc1F` (racemic) [(±)-DR106, 4-(3-(6-cyano-5-(trifluoromethyl)pyridin-3-yl)-7,7-dimethyl-4-oxo-2-thioxo-1,3-diazaspiro[4.5]decan-1-yl)-2-fluoro-N-methylbenzamide] was tested. Which “Effect on transcriptional activity of AR F876L in EGFP reporter assay (agonism or antagonism)” value (AR F876L) did it give?
A: The value was “effectively antagonized; also recorded: AR F876L inhibition”.

Q: And the “Effect on transcriptional activity of AR WT in EGFP reporter assay (agonism or antagonism)” value (AR WT)?
A: Its value is “effectively antagonized”.

Q: Which “Effect on transcriptional activity of AR F876L in EGFP reporter assay (agonism or antagonism)” value (AR F876L) does the source give for `CNC(=O)c1ccc(N2C(=S)N(c3ccc(C#N)c(C(F)(F)F)c3)C(=O)C23CCCCC3)cc1F` [DR101, 4-(3-(4-cyano-3-(trifluoromethyl)phenyl)-4-oxo-2-thioxo-1,3-diazaspiro[4.5]decan-1-yl)-2-fluoro-N-methylbenzamide] here?
A: The value was “agonist”.

Q: What about the “Growth of VCaP cells, AR WT” value [1] of the same compound?
A: Its value is “only inhibit the growth of VCaP/AR WT”.

Q: And the “Growth of VCaP cells overexpressing AR F876L” value [7]?
A: The value was “did not inhibit cell growth”.

Q: How did the “Agonism in luciferase reporter” value (AR T877A) turn out when `CC(C)(O)C(=O)Nc1ccc([N+](=O)[O-])c(C(F)(F)F)c1` [hydroxyflutamide] was run?
A: Its value is “confer agonism”.

Q: `CNC(=O)c1ccc(N2C(=S)N(c3cnc(C#N)c(C(F)(F)F)c3)C(=O)C23CCC3)cc1F` [ARN-509] was tested. Which “Agonism on AR mutants, luciferase reporter” value [4] did it give?
A: The value was “none of the mutants conferred agonism”.

Q: What about the “Sensitivity of AR mutants, EGFP reporter” value [5] of the same compound?
A: Its value is “still remained sensitive”.

Q: What about the “Sensitivity of AR mutants, EGFP reporter assay & qRT-PCR” value [6] of the same compound?
A: The value was “still remained sensitive”.

Q: Which results are given for `CNC(=O)c1ccc(N2C(=S)N(c3ccc(C#N)c(C(F)(F)F)c3)C(=O)C23CCC(C)(C)CC3)cc1F` [DR104, 4-(3-(4-cyano-3-(trifluoromethyl)phenyl)-8,8-dimethyl-4-oxo-2-thioxo-1,3-diazaspiro[4.5]decan-1-yl)-2-fluoro-N-methylbenzamide]?
A: Effect on transcriptional activity of AR F876L in EGFP reporter assay (agonism or antagonism) (AR F876L): modest agonist; Effect on transcriptional activity of AR WT in EGFP reporter assay (agonism or antagonism) (AR WT): antagonist; Proliferation of DU145 cells [8]: no significant growth inhibition

Q: What does the source list for `CNC(=O)c1ccc(N2CC(=O)N(c3ccc(C#N)c(C(F)(F)F)c3)C2=S)cc1F` [DR107, 4-(3-(4-cyano-3-(trifluoromethyl)phenyl)-4-oxo-2-thioxoimidazolidin-1-yl)-2-fluoro-N-methylbenzamide]?
A: Effect on transcriptional activity of AR F876L in EGFP reporter assay (agonism or antagonism) (AR F876L): agonist; Effect on transcriptional activity of AR WT in EGFP reporter assay (agonism or antagonism) (AR WT): agonist
